Results on 42 substances are retold here after patent US10556936B2, “Immunogenic proteins and fragments thereof from allergenic mites” (ALK-ABELLÓ A/S, priority 2016, dated 2020).

This assay deals with HDM-specific T cells expanded from PBMCs of HDM-allergic individuals. Kind of assay: T cell reactivity of peptides: IFN/IL-5 ELISPOT on in vitro expanded HDM-specific T cells. The assay is classed as cell-based, human. As to conditions: for SFC/donor: individual peptides 10 μg/mL; for % responder: percentage of donors that produced a response against the peptide, 10 μg/mL. As for the experimental part: Each sequence of an “L” cluster was aligned separately using the MEGA software tool with ClustalW. Fifteen-mer peptides overlapping by 10 amino acids were generated and the last 15-mer peptide was added when the sequence length was not divisible by 5, 14,783 unique peptides remained.
HLA class II binding predictions optimized for global coverage were performed for the seven class II alleles (HLA-DRB1*03:01, HLA-DRB1*07:01, HLA-DRB1*15:01, HLA-DRB3*01:01, HLA-DRB3*02:02, HLA-DRB4*01:01 and HLA-DRB5*01:01) using the standalone version of the IEDB class II binding prediction tool. The median consensus percentile rank was estimated from the consensus percentile ranks for the seven alleles. Further, peptides with more than ten overlapping amino acids, which appeared because several occurrences of some sequence regions were repeated multiple times in the same sequence, were eliminated (e.g. “[…]” was repeated seven times in one sequence.) Variant peptides were also removed, retaining the better peptide based on the median consensus percentile rank and conservation among the sequences within its respective cluster. Peptides with median consensus percentile rank ≤10.0 and conserved in ≥35% of sequences in the same cluster were finally selected, also including additional selected peptides chosen to maximize DRB1 allele coverage, for a grand total of 2,589 peptides.
Peptides were purchased from Mimotopes (Clayton, Victoria, Australia) or A and A (San Diego, Calif.) as crude material on a small (1-mg) scale. Individual peptides were resuspended in DMSO at a final concentration of 40 mg/mL. Peptide “megapools” of 30-65 peptides/pool were generated. Following lyophilization, each pool was reconstituted in DMSO so that each peptide was present at a concentration of 4 mg/mL. To facilitate deconvolution of positive megapools, each megapool was further broken down in 2-6 “mesopools” (259 mesopools in total), each containing 8-14 peptides. Each mesopool was then deconvoluted to identify individual positive peptides. To avoid dimerization and polymerization of peptides by intra- and intermolecular disulfide bond formation between cysteine residues, this amino acid were in some instances substituted by a serine residue in the peptides. Such peptides are herein marked with an asterisk (*).
PBMCs from European HDM-allergic individuals were recruited in the Copenhagen region (defined by clinical history of allergy to house dust mite and specific IgE to group 1 and group 2 major allergens from Der p and/or Der f and with measured specific IgE (CAP) >0.7 kU/L towards Der p/f 1 or Der p/f 2. In addition, PBMCs from 10 US HDM-allergic individuals were recruited in San Diego (defined by Der p extract IgE titers greater than 0.35 kUA/L). PBMCs were isolated from whole blood by density gradient centrifugation according to manufacturers' instructions (Ficoll-Hypaque, Amersham Biosciences, Uppsala, Sweden). Der p- and Der f-specific extract IgE titers were determined using the ImmunoCAP system (Thermo Fisher, Uppsala, Sweden). In a separate series of experiments, pooled plasma from 10 European and 10 American HDM atopic individuals from the San Diego region, respectively, was utilized to run 2D immunoblots to elucidate IgE and IgG reactivity towards the proteins, which had at least one peptide with positive T cell response.
HDM-specific T cells were expanded in vitro. Briefly, PBMCs from HDM-allergic individuals were stimulated with HDM extract (5 μg/mL) and expanded over 14-17 days with IL-2 (added every 3 days). Cells were harvested on day 14, restimulated with HDM extract (5 μg/mL), individual peptides (10 μg/mL) or peptide pools (5 μg/mL) and screened for […]/IL-5-production by ELISPOT. Criteria for positivity were 100 or 20 spot forming cells (SFCs) per 10^6 PBMCs for peptide pools or single peptides, respectively, p<0.05, and a stimulation index >2.

With “143 (FNTAVLFDRQGKLLG; Immunogenic fragment) [compound 143]”, the SFC/donor is reported as 11 SFC/donor and the “% responder” value came to 10%.
In the case of “62 (RHIINESYKKLLPKS; Immunogenic fragment) [compound 62]”, the SFC/donor is listed as 4 SFC/donor and the “% responder” value is listed as 5%.
The matching figures for “91 (GVFLFNSNAMDILTQ; Immunogenic fragment) [compound 91]”: 9 SFC/donor and 5%.
As for “93 (QVVQQYHNLIGLPAM; Immunogenic fragment) [compound 93]”, the SFC/donor was determined as 11 SFC/donor and the “% responder” value is on record as 10%.
Take “116 (LGESVIRAARSSLQY; Immunogenic fragment) [compound 116]”: the SFC/donor is listed as 30 SFC/donor and the “% responder” value came to 15%.
In the case of “47 (ELLKKKGIIPGIKVD; Immunogenic fragment) [compound 47]”, the SFC/donor is reported as 12 SFC/donor and the “% responder” value was 5%.
Consider “110 (ILSDWSSMRWTIPSI; Immunogenic fragment) [compound 110]”, for which the SFC/donor amounted to 36 SFC/donor and the “% responder” value is 30%.
Take “EPFMINQLAALIRRE (Immunogenic fragment) [Peptide 181, fragment of A0023 Der f/p]”: the SFC/donor is 40 SFC/donor and the “% responder” value was 10%.
Take “70 (HSKRYLLRLEHFYQR; Immunogenic fragment) [compound 70]”: the SFC/donor was found to be 5 SFC/donor and the “% responder” value is recorded as 5%.
Taken in the same sequence, the figures for “139 (ELNFKVYEDAAALAK; Immunogenic fragment) [compound 139]” were 16 SFC/donor and 10%.
On to “102 (QLHYNLHNLYGFQEA; Immunogenic fragment) [compound 102]”, for which the SFC/donor was found to be 14 SFC/donor and the “% responder” value stood at 10%.
In the case of “124 (DINYVFFRSGSIIPI; Immunogenic fragment) [compound 124]”, the SFC/donor came out at 20 SFC/donor and the “% responder” value is given as 10%.
For “LQHFNNAIKQLNTED (Immunogenic fragment) [Peptide 189, fragment of A0023 Der f]”, the SFC/donor was determined as 24 SFC/donor and the “% responder” value was 10%.
Turning to “95 (TTYTRNRAVGIPMDV; Immunogenic fragment) [compound 95]”, the SFC/donor was determined as 77 SFC/donor and the “% responder” value came out at 15%.
The matching figures for “GYAFIMESSSAEHEI (Immunogenic fragment) [Peptide 184, fragment of A0023 Der f]”: 16 SFC/donor and 10%.
“45 (IMRILCCKSRKVAPC; Immunogenic fragment) [compound 45]”: the SFC/donor is on record as 4 SFC/donor and the “% responder” value is recorded as 5%.
Take “152 (LRGAFSESTAVYPSA; Immunogenic fragment) [compound 152]”: the SFC/donor stood at 5 SFC/donor and the “% responder” value was 5%.
The matching figures for “77 (ANQPISSLKNRLHYR; Immunogenic fragment) [compound 77]”: 4 SFC/donor and 5%.
For the substance “106 (AALTKLNKRPFIISR; Immunogenic fragment) [compound 106]”, the SFC/donor is reported as 14 SFC/donor and the “% responder” value is listed as 10%.
For the substance “HKPIILGTLRNGATN (Immunogenic fragment) [Peptide 182, fragment of A0023 Der f]”, the SFC/donor came out at 175 SFC/donor and the “% responder” value is reported as 10%.
For “123 (YDDIDYVFVRGGSII; Immunogenic fragment) [compound 123]”, the SFC/donor is listed as 149 SFC/donor and the “% responder” value was 30%.
For the substance “86 (RLYSVELDGSHLIVR; Immunogenic fragment) [compound 86]”, the SFC/donor turned out to be 3 SFC/donor and the “% responder” value turned out to be 5%.
As for “92 (GPKPEQVVQQYHNLI; Immunogenic fragment) [compound 92]”, the SFC/donor is given as 1 SFC/donor and the “% responder” value stood at 5%.
Take “114 (YQLGAFYSFARNHND; Immunogenic fragment) [compound 114]”: the SFC/donor is 35 SFC/donor and the “% responder” value came to 15%.
With “46 (FNYLPVDVQEELRNT; Immunogenic fragment) [compound 46]”, the SFC/donor was found to be 7 SFC/donor and the “% responder” value amounted to 5%.
For “140 (EDGLIYNIASREKAD; Immunogenic fragment) [compound 140]”, the SFC/donor is recorded as 55 SFC/donor and the “% responder” value is on record as 5%.
In the case of “56 (LKKHYADLAARPFFP; Immunogenic fragment) [compound 56]”, the SFC/donor amounted to 8 SFC/donor and the “% responder” value was 5%.
Take “104 (LHNLYSLSMAMATNA; Immunogenic fragment) [compound 104]”: the SFC/donor stood at 29 SFC/donor and the “% responder” value is 10%.
As for “129 (INILGVPKLPTSFKL; Immunogenic fragment) [compound 129]”, the SFC/donor amounted to 24 SFC/donor and the “% responder” value amounted to 20%.
Take “LTMLLDWRNLYPRKY (Immunogenic fragment) [Peptide 185, fragment of A0023 Der f]”: the SFC/donor came out at 15 SFC/donor and the “% responder” value came to 5%.
Take “61 (AMLQCRHVISESYRK; Immunogenic fragment) [compound 61]”: the SFC/donor was 5 SFC/donor and the “% responder” value is recorded as 5%.
For “YPRKYAFALPKDSQY (Immunogenic fragment) [Peptide 187, fragment of A0023 Der f]”, the SFC/donor is on record as 25 SFC/donor and the “% responder” value was found to be 10%.
Taken in the same sequence, the figures for “131 (PRIIRFNYDEQTNIL; Immunogenic fragment) [compound 131]” were 160 SFC/donor and 25%.
In the case of “74 (TVSLRHLFQSFEITA; Immunogenic fragment) [compound 74]”, the SFC/donor was 25 SFC/donor and the “% responder” value is reported as 5%.
Taken in the same sequence, the figures for “108 (NKRPFIISRATAPGH; Immunogenic fragment) [compound 108]” were 146 SFC/donor and 5%.
Regarding “103 (QLHYNLHNLYSLSMA; Immunogenic fragment) [compound 103]”, the SFC/donor came out at 69 SFC/donor and the “% responder” value was 5%.
Taken in the same sequence, the figures for “68 (DGHGIVIRGRHLLLL; Immunogenic fragment) [compound 68]” were 24 SFC/donor and 5%.
On to “90 (TKLASGVFLFNSNAM; Immunogenic fragment) [compound 90]”, for which the SFC/donor was determined as 11 SFC/donor and the “% responder” value is 5%.
As for “138 (YHNLIGLPAMPPFWS; Immunogenic fragment) [compound 138]”, the SFC/donor came out at 3 SFC/donor and the “% responder” value was determined as 5%.
“134 (TNNMLIIQTKLSIFN; Immunogenic fragment) [compound 134]”: the SFC/donor is 4 SFC/donor and the “% responder” value worked out at 5%.
Taken in the same sequence, the figures for “98 (WMDMFAEYHKTIAFD; Immunogenic fragment) [compound 98]” were 8 SFC/donor and 5%.
In the case of “85 (DQVLRLKFIDANQKR; Immunogenic fragment) [compound 85]”, the SFC/donor turned out to be 222 SFC/donor and the “% responder” value is listed as 20%.
